Data: article PMC2075610 (Biochimica et Biophysica Acta. Molecular Basis of Disease, 2006)
Positions count from the first letter of the chain named. Non-standard residues stand in square brackets, D forms with d. Residues, ends and D or L forms follow the SMILES beside them. *: point of attachment. Nle = CCCC[C@H](N)C(=O)O; For = O=C*

Tests used:
FIV = conditions: cited from earlier work
R190/K192 FPR [1] = molecular target: T1, R190/K192 FPR (Homo sapiens, UniProt P21462, N192K); experiment: biochemical; assay type: biochemical
W190/N192 FPR [2] = molecular target: T2, W190/N192 FPR (Homo sapiens, UniProt P21462, R190W); experiment: biochemical; assay type: binding; conditions: for Ki: Ki (nM ± SEM) for binding of peptides to W190/N192 FPR
R190/K192 FPR [3] = molecular target: T1, R190/K192 FPR; experiment: biochemical; assay type: binding
R190/N192 FPR [4] = molecular target: T3, R190/N192 FPR (Homo sapiens, UniProt P21462); experiment: biochemical; assay type: binding
R190/N192 FPR [5] = molecular target: T3, R190/N192 FPR; experiment: biochemical; assay type: biochemical
W190/N192 FPR [6] = molecular target: T2, W190/N192 FPR; experiment: biochemical; assay type: biochemical
W190/N192 FPR [7] = molecular target: T2, W190/N192 FPR; assay type: cell-based
R190/K192 FPR [8] = molecular target: T1, R190/K192 FPR; assay type: cell-based
W190/N192 FPR [9] = molecular target: T2, W190/N192 FPR; assay type: cell-based; remark: listed apart in the source
R190/K192 FPR [10] = molecular target: T1, R190/K192 FPR; assay type: cell-based; remark: listed apart in the source
R190/N192 FPR [11] = molecular target: T3, R190/N192 FPR; assay type: cell-based
R190/N192 FPR [12] = molecular target: T3, R190/N192 FPR; assay type: cell-based; remark: listed apart in the source
FPR = conditions: cited from earlier work
[13] = molecular target: Coronavirus 229E spike 5mer (Human coronavirus 229E); experiment: flow
[14] = molecular target: HIV-1 gp41 12mer (Human immunodeficiency virus 1); experiment: flow
[15] = molecular target: HIV-2 envelope 37mer (Human immunodeficiency virus 2); experiment: flow
reverse 229E peptide = experiment: flow
[16] = molecular target: Coronavirus 229E spike 7mer (Human coronavirus 229E); experiment: flow
[17] = molecular target: HKU-1 coronavirus spike peptide (Human coronavirus HKU1); experiment: flow
MMWLL = experiment: flow
[18] = molecular target: SARS coronavirus spike 12mer (SARS coronavirus); experiment: flow
[19] = molecular target: Coronavirus OC43 spike 36mer (Human coronavirus OC43); experiment: flow
[20] = molecular target: ETYIK-(Alexa Fluor)WPWWVWL (Human coronavirus 229E); experiment: flow
[21] = molecular target: Coronavirus 229E spike 12mer (Human coronavirus 229E); experiment: flow
[22] = molecular target: Coronavirus 229E spike 36mer (Human coronavirus 229E); experiment: flow
[23] = molecular target: Coronavirus 229E spike N-terminal 7mer (Human coronavirus 229E); experiment: flow

Q: For QLQKWEDWVRWI, which “inhibition of FIV infection (potency)” value (FIV) is on record?
A: The value was “low nanomolar”.

Q: For `CSCC[C@H](N)C(=O)N[C@@H](Cc1ccc(O)cc1)C(=O)N[C@H](C(=O)N[C@@H](CCCCN)C(=O)N[C@@H](Cc1c[nH]c2ccccc12)C(=O)N1CCC[C@H]1C(=O)N[C@@H](Cc1c[nH]c2ccccc12)C(=O)N[C@@H](Cc1ccc(O)cc1)C(=O)N[C@H](C(=O)N[C@@H](Cc1c[nH]c2ccccc12)C(=O)N[C@@H](CC(C)C)C(=O)O)C(C)C)C(C)C` (H-MYVKWPWYVWL-OH), which “inhibition of 300 nM formyl-MYVKWPWYVWL stimulation of GTPγS binding” value (from here on “inhibition … of GTPγS binding”) (R190/K192 FPR [1]) is on record?
A: The value was “did not have a significant effect”.

Q: And the “stimulation of GTPγS binding” value (R190/K192 FPR [1])?
A: Its value is “neither ETYIKWPWWVWL nor MYVKWPWYVWL had any effect”.

Q: What about the “fold enhancement of affinity on formylation” value (“fold enhancement of affinity” below) (W190/N192 FPR [2]) of the same molecule?
A: The value was 2 fold.

Q: And the “fold higher affinity for W190/N192 than for R190/N192 or R190/K192” value (W190/N192 FPR [2])?
A: Its value is 3 fold.

Q: And the Ki (W190/N192 FPR [2])?
A: The Ki was 263 ± 9 nM.

Q: And the Ki (R190/K192 FPR [3])?
A: The Ki was 837 ± 32 nM.

Q: What about the “fold enhancement of affinity” value (R190/K192 FPR [3]) of the same molecule?
A: The value was 6 fold.

Q: What about the Ki (R190/N192 FPR [4]) of the same molecule?
A: The Ki was 783 ± 50 nM.

Q: What about the “fold enhancement of affinity” value (R190/N192 FPR [4]) of the same molecule?
A: Its value is 6 fold.

Q: And the “inhibition … of GTPγS binding” value (R190/N192 FPR [5])?
A: Its value is “did not have a significant effect”.

Q: And the “stimulation of GTPγS binding” value (R190/N192 FPR [5])?
A: The value was “neither ETYIKWPWWVWL nor MYVKWPWYVWL had any effect”.

Q: And the “inhibition … of GTPγS binding” value (W190/N192 FPR [6])?
A: Its value is 60%.

Q: And the “stimulation of GTPγS binding” value (W190/N192 FPR [6])?
A: The value was “neither ETYIKWPWWVWL nor MYVKWPWYVWL had any effect”.

Q: With `CCCC[C@H](NC=O)C(=O)N[C@@H](CC(C)C)C(=O)N[C@@H](Cc1ccccc1)C(=O)O` [Formyl-NleLeuPhe, Formyl-Nle–Leu–Phe, reference compound] (For-[Nle]-Leu-Phe-OH) as the molecule, how does the β-arrestin translocation (W190/N192 FPR [7]) read?
A: The β-arrestin translocation was “caused β-arrestin translocation”.

Q: What about the “stimulation of GTPγS binding” value (R190/K192 FPR [1]) of the same molecule?
A: The value was “stimulated GTPγS binding”.

Q: And the “fold reduction of affinity on substitution of R190 with W190” value (W190/N192 FPR [2])?
A: Its value is 2.5 fold.

Q: What about the “fold higher affinity for R190/K192 than for W190/N192” value (R190/K192 FPR [3]) of the same molecule?
A: The value was roughly 3 fold.

Q: What about the surface receptor downregulation (R190/K192 FPR [8]) of the same molecule?
A: Its surface receptor downregulation is 85 ± 0.4%.

Q: And the surface receptor downregulation (W190/N192 FPR [9])?
A: The surface receptor downregulation was 76 ± 3%.

Q: And the β-arrestin translocation (R190/K192 FPR [10])?
A: Its β-arrestin translocation is “caused β-arrestin translocation”.

Q: What about the surface receptor downregulation (R190/N192 FPR [11]) of the same molecule?
A: The surface receptor downregulation was 76 ± 1.2%.

Q: What about the “stimulation of GTPγS binding” value (R190/N192 FPR [5]) of the same molecule?
A: The value was “stimulated GTPγS binding”.

Q: What about the β-arrestin translocation (R190/N192 FPR [12]) of the same molecule?
A: The β-arrestin translocation was “caused β-arrestin translocation”.

Q: What about the “stimulation of GTPγS binding” value (W190/N192 FPR [6]) of the same molecule?
A: Its value is “stimulated GTPγS binding”.

Q: Which “effect on FPR” value (FPR) does the source give for WRWWWW here?
A: Its value is “did not affect FPR”.

Q: For `CC[C@H](C)[C@H](NC(=O)[C@H](Cc1ccc(O)cc1)NC(=O)[C@@H](NC(=O)[C@@H](N)CCC(=O)O)[C@@H](C)O)C(=O)N[C@@H](CCCCN)C(=O)N[C@@H](Cc1c[nH]c2ccccc12)C(=O)N1CCC[C@H]1C(=O)N[C@@H](Cc1c[nH]c2ccccc12)C(=O)N[C@@H](Cc1c[nH]c2ccccc12)C(=O)N[C@H](C(=O)N[C@@H](Cc1c[nH]c2ccccc12)C(=O)N[C@@H](CC(C)C)C(=O)O)C(C)C`, which “inhibition of arrestin translocation in response to formyl-Nle–Leu–Phe” value (from here on “inhibition of arrestin translocation”) (W190/N192 FPR [7]) is on record?
A: The value was 77 ± 10%.

Q: And the β-arrestin translocation (W190/N192 FPR [7])?
A: Its β-arrestin translocation is “did not cause translocation”.

Q: And the EC50 (R190/K192 FPR [1])?
A: The EC50 was 1600 ± 440 nM.

Q: And the “stimulation of GTPγS binding” value (R190/K192 FPR [1])?
A: The value was “neither ETYIKWPWWVWL nor MYVKWPWYVWL had any effect”.

Q: And the Ki (W190/N192 FPR [2])?
A: The Ki was 270 ± 10 nM.

Q: What about the Ki (R190/K192 FPR [3]) of the same molecule?
A: Its Ki is 370 ± 30 nM.

Q: What about the “inhibition of receptor downregulation in response to formyl-Nle–Leu–Phe” value (“inhibition of receptor downregulation” for short) (R190/K192 FPR [8]) of the same molecule?
A: The value was 20 ± 2%.

Q: And the surface receptor downregulation (R190/K192 FPR [8])?
A: Its surface receptor downregulation is “did not cause surface receptor downregulation”.

Q: And the “inhibition of receptor downregulation” value (W190/N192 FPR [9])?
A: Its value is 64 ± 6%.

Q: What about the surface receptor downregulation (W190/N192 FPR [9]) of the same molecule?
A: Its surface receptor downregulation is “did not cause surface receptor downregulation”.

Q: What about the “inhibition of arrestin translocation” value (R190/K192 FPR [10]) of the same molecule?
A: Its value is 20 ± 9%.

Q: And the β-arrestin translocation (R190/K192 FPR [10])?
A: The β-arrestin translocation was “did not cause translocation”.

Q: What about the Ki (R190/N192 FPR [4]) of the same molecule?
A: The Ki was 533 ± 30 nM.

Q: What about the “inhibition of receptor downregulation” value (R190/N192 FPR [11]) of the same molecule?
A: The value was 16 ± 2%.

Q: What about the surface receptor downregulation (R190/N192 FPR [11]) of the same molecule?
A: Its surface receptor downregulation is “did not cause surface receptor downregulation”.

Q: What about the EC50 (R190/N192 FPR [5]) of the same molecule?
A: The EC50 was 1600 ± 400 nM.

Q: And the “stimulation of GTPγS binding” value (R190/N192 FPR [5])?
A: The value was “neither ETYIKWPWWVWL nor MYVKWPWYVWL had any effect”.

Q: And the “inhibition of arrestin translocation” value (R190/N192 FPR [12])?
A: The value was 18 ± 4%.

Q: And the β-arrestin translocation (R190/N192 FPR [12])?
A: Its β-arrestin translocation is “did not cause translocation”.

Q: And the EC50 (W190/N192 FPR [6])?
A: The EC50 was 300 ± 120 nM.

Q: And the “stimulation of GTPγS binding” value (W190/N192 FPR [6])?
A: The value was “neither ETYIKWPWWVWL nor MYVKWPWYVWL had any effect”.

B1: Formyl peptide receptor (FPR R190/N192), P21462 (protein)
chain: METNSSLPTNISGGTPAVSAGYLFLDIITYLVFAVTFVLGVLGNGLVIWVAGFRMTHTVTTISYLNLAVADFCFTSTLPFFMVRKAMGGHWPFGWFLCKFVFTIVDINLFGSVFLIALIALDRCVCVLHPVWTQNHRTVSLAKKVIIGPWVMALLLTLPVIIRVTTVPGKTGTVACTFNFSPWTNDPKERINVAVAMLTVRGIIRFIIGFSAPMSIVAVSYGLIATKIHKQGLIKSSRPLRVLSFVAAAFFLCWSPYQVVALIATVRIRELLQGMYKEIGIAVDVTSALAFFNSCLNPMLYVFMGQDFRERLIHALPASLERALTEDSTQTSDTATNSTLPSAEVELQAK
Q: Which Ki [13] does the source give for B1 here?
A: Its Ki is 1000 nM.

Q: What about the Ki [14] of the same molecule?
A: The Ki was 1200 nM.

Q: And the Ki [15]?
A: Its Ki is 15700 nM.

Q: And the Ki (reverse 229E peptide)?
A: Its Ki is greater than 50000 nM.

Q: And the Ki [16]?
A: Its Ki is 600 nM.

Q: And the Ki [17]?
A: The Ki was 783 nM.

Q: What about the Ki (MMWLL) of the same molecule?
A: The Ki was 330 nM.

Q: And the Ki [18]?
A: Its Ki is 2050 nM.

Q: What about the Ki [19] of the same molecule?
A: Its Ki is 850 nM.

Q: And the Kd [20]?
A: The Kd was 121 nM.

Q: What about the Ki [21] of the same molecule?
A: The Ki was 533 nM.

Q: And the Ki [22]?
A: The Ki was 10000 nM.

Q: What about the Ki [23] of the same molecule?
A: Its Ki is greater than 260000 nM.

B2: Formyl peptide receptor (FPR R190/K192), P21462 (protein)
chain: B1 chain with N192K
Q: With B2 as the molecule, how does the Ki (reverse 229E peptide) read?
A: Its Ki is greater than 50000 nM.

Q: What about the Ki (MMWLL) of the same molecule?
A: Its Ki is 190 nM.

B3: Formyl peptide receptor (FPR W190/N192), P21462 (protein)
chain: B1 chain with R190W
Q: What does the source list for B3?
A: Ki (reverse 229E peptide): > 50000 nM; Ki (MMWLL): 840 nM
